# Calls of active or inactive are those of the source. The calls are words filed in the database; no cut-off is given here.
# How the values were obtained:
# Pyruvate kinase PKM [1] = molecular target: T1, Pyruvate kinase PKM (Homo sapiens, UniProt P14618); test: Inhibition of human PKM2 assessed as ATP production incubated for 10 mins by Celltiter-glo luminescent analysis
# Target sequence in this assay (P14618 whole entry): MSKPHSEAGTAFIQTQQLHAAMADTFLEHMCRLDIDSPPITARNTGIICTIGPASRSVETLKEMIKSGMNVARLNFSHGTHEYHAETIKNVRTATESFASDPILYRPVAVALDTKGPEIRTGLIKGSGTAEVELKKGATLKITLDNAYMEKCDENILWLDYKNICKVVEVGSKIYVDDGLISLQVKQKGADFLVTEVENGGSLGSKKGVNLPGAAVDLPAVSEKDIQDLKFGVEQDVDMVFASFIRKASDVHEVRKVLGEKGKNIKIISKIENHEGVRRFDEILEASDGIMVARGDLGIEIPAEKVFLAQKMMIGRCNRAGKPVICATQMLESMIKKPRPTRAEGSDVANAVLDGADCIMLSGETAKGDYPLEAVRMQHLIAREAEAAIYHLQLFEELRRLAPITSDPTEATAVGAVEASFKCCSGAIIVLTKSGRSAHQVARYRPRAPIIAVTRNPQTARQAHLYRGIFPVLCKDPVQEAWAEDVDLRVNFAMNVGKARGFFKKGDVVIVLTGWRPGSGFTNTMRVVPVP
# Pyruvate kinase PKM [2] = molecular target: T1, Pyruvate kinase PKM; test: Inhibition of human PKM2 assessed as ATP production incubated for 10 mins in presence of beta-mercaptoethanol by Celltiter-glo luminescent analysis
# Target sequence in this assay (P14618 whole entry): as above
# Pyruvate kinase PKM [3] = molecular target: T1, Pyruvate kinase PKM; test: Inhibition of PKM2 in human PA-1 cells assessed as reduction in c-MYC phosphorylation level at 3 uM incubated for 6 to 12 hrs by Western blotting analysis; type: cell-based; conditions: time 6-12 hrs
# Target sequence in this assay (P14618 2-531 limits assumed): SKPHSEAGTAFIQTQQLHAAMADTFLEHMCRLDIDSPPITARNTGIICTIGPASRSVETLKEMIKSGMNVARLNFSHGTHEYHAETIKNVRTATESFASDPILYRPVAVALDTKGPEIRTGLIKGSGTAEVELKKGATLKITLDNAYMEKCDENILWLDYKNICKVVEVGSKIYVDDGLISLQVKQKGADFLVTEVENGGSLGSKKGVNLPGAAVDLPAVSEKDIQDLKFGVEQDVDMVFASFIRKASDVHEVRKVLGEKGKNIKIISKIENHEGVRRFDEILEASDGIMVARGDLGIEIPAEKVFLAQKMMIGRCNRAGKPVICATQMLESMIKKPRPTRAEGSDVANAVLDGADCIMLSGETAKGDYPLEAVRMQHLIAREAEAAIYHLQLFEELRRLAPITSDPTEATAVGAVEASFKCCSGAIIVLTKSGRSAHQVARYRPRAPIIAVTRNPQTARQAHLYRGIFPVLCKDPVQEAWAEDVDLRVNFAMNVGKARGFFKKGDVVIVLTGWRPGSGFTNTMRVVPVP
# SK-OV-3 [4] = test: Inhibition of PKM2 knockdown in human SK-OV-3 cells assessed as c-MYC phosphorylation level at 3 uM incubated for 6 to 12 hrs by Western blotting analysis; type: functional, cell-based; conditions: time 6-12 hrs
# Pyruvate kinase PKM [5] = molecular target: T1, Pyruvate kinase PKM; test: Inhibition of PKM2 in human PA-1 cells assessed as increase in extracellular acidification rate at 1 to 5 uM measured for 12 hrs by Seahorse XF96 extracellular flux analyzer; type: cell-based; conditions: dose 1-5 µM
# Target sequence in this assay (P14618 2-531 limits assumed): as above
# SK-OV-3 [6] = test: Antiproliferative activity against human PKM2 knockdown SK-OV-3 cells assessed as reduction in cell viability incubated after 96 hrs by Cell-TiterGlo assay; type: functional, cell-based
# Pyruvate kinase PKM [7] = molecular target: Pyruvate kinase PKM (Homo sapiens, UniProt P14618, C474S); test: Binding affinity to PKM2 C474S mutant in human PA-1 cells measured for 72 hrs; type: cell-based
# Pyruvate kinase PKM [8] = molecular target: T1, Pyruvate kinase PKM; test: Inhibition of PKM2 in human PA-1 cells assessed as increase in ADP/ATP ratio at 5 uM measured for 12 hrs by LC-MS analysis; type: cell-based
# Target sequence in this assay (P14618 2-531 limits assumed): as above
# [9] = Toxicity in BALB/c mouse assessed as adverse effects at 50 mg/kg, po qd measured after 2 weeks; type: organism-based; conditions: in vivo, 336 h
# Pyruvate kinase PKM [10] = molecular target: T1, Pyruvate kinase PKM; test: Inhibition of PKM2 in human SK-OV-3 cells assessed as decrease in extracellular acidification rate at 5 uM measured for 12 hrs by Seahorse XF96 extracellular flux analyzer; type: cell-based
# Target sequence in this assay (P14618 2-531 limits assumed): as above
# Pyruvate kinase PKM [11] = molecular target: T1, Pyruvate kinase PKM; test: Binding affinity to wild type FLAG-tagged PKM2 in human PA-1 cells measured for 72 hrs; type: cell-based
# Target sequence in this assay (P14618 whole entry): as the sequence (P14618 whole entry) above
# A2780 = test: Antiproliferative activity against human A2780 cells assessed as reduction in cell viability incubated for 72 hrs by Cell-TiterGlo assay; type: functional, cell-based; conditions: A2780, 72 h
# Pyruvate kinase PKM [12] = molecular target: T1, Pyruvate kinase PKM; test: Inhibition of PKM2 in human PA-1 cells assessed as reduction in LDH level at 5 uM measured after 3 hrs by Western blot analysis; type: cell-based
# Target sequence in this assay (P14618 2-531 limits assumed): as the sequence (P14618 2-531 limits assumed) above
# Pyruvate kinase PKM [13] = molecular target: T1, Pyruvate kinase PKM; test: Inhibition of PKM2 in human PA-1 cells assessed as reduction pyruvate level at 5 uM measured for 12 hrs by LC-MS analysis; type: cell-based
# Target sequence in this assay (P14618 2-531 limits assumed): as above
# PA-1 [14] = test: Antiproliferative activity against human PKM2 knockdown PA-1 cells assessed as reduction in cell viability incubated after 96 hrs by Cell-TiterGlo assay; type: functional, cell-based
# Pyruvate kinase PKM [15] = molecular target: Pyruvate kinase PKM (Homo sapiens, UniProt P14618, C474A); test: Binding affinity to PKM2 C474A mutant in human PA-1 cells measured for 72 hrs; type: cell-based
# [16] = Toxicity in BALB/c mouse assessed as change in body weight at 50 mg/kg, po qd measured after 2 weeks; type: organism-based; conditions: in vivo, 336 h
# Pyruvate kinase PKM [17] = molecular target: T1, Pyruvate kinase PKM; test: Inhibition of PKM2 in human PA-1 cells assessed as effect on STAT3 phosphorylation level at 3 uM incubated for 6 to 12 hrs by Western blotting analysis; type: cell-based; conditions: time 6-12 hrs
# Pyruvate kinase PKM [18] = molecular target: T1, Pyruvate kinase PKM; test: Inhibition of PKM2 in human PA-1 cells assessed as effect on AKT phosphorylation level at 3 uM incubated for 6 to 12 hrs by Western blotting analysis; type: cell-based; conditions: time 6-12 hrs
# HEY [19] = test: Antitumor activity against human HEY cells xenografted in BALB/c nude mouse model assessed as reduction in total tumor weight by measuring fold change at 50 mg/kg, po qd; type: functional
# Pyruvate kinase PKM [20] = molecular target: T1, Pyruvate kinase PKM; test: Inhibition of PKM2 in human PA-1 cells assessed as reduction in cyclin D1 phosphorylation level at 3 uM incubated for 6 to 12 hrs by Western blotting analysis; type: cell-based; conditions: time 6-12 hrs
# HEY [21] = test: Antitumor activity against human HEY cells xenografted in BALB/c nude mouse model assessed as reduction of tumor burden at 50 mg/kg, po qd; type: functional, organism-based
# SK-OV-3 [22] = test: Antiproliferative activity against human SK-OV-3 cells assessed as reduction in cell viability incubated for 72 hrs by Cell-TiterGlo assay; type: functional, cell-based; conditions: SK-OV-3, 72 h
# SK-OV-3 [23] = test: Inhibition of PKM2 knockdown in human SK-OV-3 cells assessed as AMPK phosphorylation level at 3 uM incubated for 6 to 12 hrs by Western blotting analysis; type: functional, cell-based; conditions: time 6-12 hrs
# Pyruvate kinase PKM [24] = molecular target: T1, Pyruvate kinase PKM; test: Inhibition of PKM2 in human PA-1 cells assessed as effect on ERK1/2 phosphorylation level at 3 uM incubated for 6 to 12 hrs by Western blotting analysis; type: cell-based; conditions: time 6-12 hrs
# PA-1 [25] = test: Antiproliferative activity against human PA-1 cells assessed as reduction in cell viability incubated for 72 hrs by Cell-TiterGlo assay; type: functional, cell-based; conditions: PA-1, 72 h
# Pyruvate kinase PKM [26] = molecular target: T1, Pyruvate kinase PKM; test: Binding affinity to PKM2 in human SK-OV-3 cells assessed as thermal stabilization at 2 uM measured for 6 hrs by cellular thermal shift assay; type: cell-based
# Pyruvate kinase PKM [27] = molecular target: T1, Pyruvate kinase PKM; test: Binding affinity to PKM2 in human PA-1 cells assessed as thermal stabilization at 2 uM measured for 6 hrs by cellular thermal shift assay; type: cell-based
# HEY [28] = test: Antitumor activity against human HEY cells xenografted in BALB/c nude mouse model assessed as reduction average tumor volume by measuring fold change at 50 mg/kg, po qd by caliper analysis; type: functional
# Pyruvate kinase PKM [29] = molecular target: T1, Pyruvate kinase PKM; test: Binding affinity to PKM2 in human PA-1 cells assessed as target engagement of protein at 10 uM silver staining based […] gel electrophoresis analysis; type: cell-based
# Pyruvate kinase PKM [30] = molecular target: T1, Pyruvate kinase PKM; test: Binding affinity to PKM2 in human PA-1 cells at 10 uM pretreated for 6 hrs followed by pulldown using streptavidin agarose resin by Western blot analysis; type: cell-based
# Pyruvate kinase PKM [31] = molecular target: T1, Pyruvate kinase PKM; test: Inhibition of human PKM1 assessed as ATP production incubated for 10 mins by Celltiter-glo luminescent analysis
# Target sequence in this assay (P14618 whole entry): as the sequence (P14618 whole entry) above
# Pyruvate kinase PKM [32] = molecular target: T1, Pyruvate kinase PKM; test: Binding affinity to PKM2 in human SK-OV-3 cells at 10 uM pretreated for 6 hrs followed by pulldown using streptavidin agarose resin by Western blot analysis; type: cell-based
# Pyruvate kinase PKM [33] = molecular target: T1, Pyruvate kinase PKM; test: Binding affinity to human PKM1 in HEK-293T by measuring pulldown using streptavidin agarose resin preincubated for 18 hrs followed by streptavidin pulldown for 18 hrs by silver staining based immunoblotting analysis; type: cell-based; conditions: time 36.0 hrs
# Pyruvate kinase PKM [34] = molecular target: T1, Pyruvate kinase PKM; test: Binding affinity to human PKM2 in HEK-293T by measuring pulldown using streptavidin agarose resin preincubated for 18 hrs followed by streptavidin pulldown for 18 hrs by silver staining based immunoblotting analysis; type: cell-based; conditions: time 36.0 hrs
# Pyruvate kinase PKM [35] = molecular target: T1, Pyruvate kinase PKM; test: Binding affinity to PKM2 in human HeLa cells assessed as nuclear translocation at 0.5 uM measured for 24 hrs by DAPI staining based immunofluorescence analysis; type: cell-based
# Sequence of Pyruvate kinase PKM (Homo sapiens, UniProt P14618, C474S) (P14618 2-531 C474S limits assumed): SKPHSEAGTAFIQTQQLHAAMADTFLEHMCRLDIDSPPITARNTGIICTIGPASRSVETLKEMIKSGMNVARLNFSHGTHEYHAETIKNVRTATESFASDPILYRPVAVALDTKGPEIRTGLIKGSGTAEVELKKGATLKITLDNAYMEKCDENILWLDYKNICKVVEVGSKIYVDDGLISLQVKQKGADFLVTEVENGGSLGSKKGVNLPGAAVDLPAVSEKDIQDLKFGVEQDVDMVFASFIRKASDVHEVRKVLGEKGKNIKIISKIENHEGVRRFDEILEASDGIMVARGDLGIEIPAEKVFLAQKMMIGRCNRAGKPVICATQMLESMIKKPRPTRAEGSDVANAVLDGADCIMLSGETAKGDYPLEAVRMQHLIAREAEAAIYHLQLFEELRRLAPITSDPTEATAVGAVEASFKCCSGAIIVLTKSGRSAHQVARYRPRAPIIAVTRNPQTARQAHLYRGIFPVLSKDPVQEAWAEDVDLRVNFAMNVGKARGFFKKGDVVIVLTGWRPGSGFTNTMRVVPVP
# Sequence of Pyruvate kinase PKM (Homo sapiens, UniProt P14618, C474A) (P14618 2-531 C474A limits assumed): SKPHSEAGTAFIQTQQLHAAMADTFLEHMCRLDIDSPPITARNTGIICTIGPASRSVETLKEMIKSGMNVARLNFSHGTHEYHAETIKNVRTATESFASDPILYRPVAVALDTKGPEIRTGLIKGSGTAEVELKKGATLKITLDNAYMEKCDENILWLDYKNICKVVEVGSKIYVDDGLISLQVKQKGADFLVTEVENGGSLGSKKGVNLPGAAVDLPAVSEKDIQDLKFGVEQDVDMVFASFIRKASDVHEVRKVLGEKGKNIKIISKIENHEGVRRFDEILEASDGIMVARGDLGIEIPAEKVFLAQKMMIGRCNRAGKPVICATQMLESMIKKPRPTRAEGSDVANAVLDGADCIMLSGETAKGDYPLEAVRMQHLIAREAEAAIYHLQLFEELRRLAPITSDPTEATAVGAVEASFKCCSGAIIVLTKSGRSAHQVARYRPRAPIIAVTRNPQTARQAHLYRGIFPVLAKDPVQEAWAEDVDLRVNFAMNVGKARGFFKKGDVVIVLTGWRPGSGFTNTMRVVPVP
smiles,measurement,setting,value
CCN1CCC(CN(C(=O)[C@H]2CCN(Cc3ccccc3)C2)c2ccc([As](O)O)cc2)CC1,IC50,Pyruvate kinase PKM [1],671 nM
same,IC50,Pyruvate kinase PKM [2],2140 nM
CCN1CCC(CN(C(=O)[C@@H]2CCN(Cc3ccccc3)C2)c2ccc([As]3SCCS3)cc2)CC1,inhibition,Pyruvate kinase PKM [3],Active
same,inhibition,SK-OV-3 [4],inactive
same,inhibition,Pyruvate kinase PKM [5],inactive
same,Activity,SK-OV-3 [6],Active
same,IC50,Pyruvate kinase PKM [7],93 nM
same,inhibition,Pyruvate kinase PKM [8],Active
same,Activity,[9],Non-Toxic
same,inhibition,Pyruvate kinase PKM [10],Active
same,IC50,Pyruvate kinase PKM [1],> 10000 nM
same,IC50,Pyruvate kinase PKM [11],16 nM
same,IC50,A2780,230 nM
same,inhibition,Pyruvate kinase PKM [12],inactive
same,IC50,Pyruvate kinase PKM [2],> 10000 nM
same,inhibition,Pyruvate kinase PKM [13],Active
same,Activity,PA-1 [14],inactive
same,IC50,Pyruvate kinase PKM [15],129 nM
same,Activity,[16],Non-Toxic
same,inhibition,Pyruvate kinase PKM [17],inactive
same,inhibition,Pyruvate kinase PKM [18],inactive
same,fold change (FC),HEY [19],>3
same,inhibition,Pyruvate kinase PKM [20],Active
same,Activity,HEY [21],Active
same,IC50,SK-OV-3 [22],> 10000 nM
same,inhibition,SK-OV-3 [23],Active
same,inhibition,Pyruvate kinase PKM [24],inactive
same,IC50,PA-1 [25],160 nM
same,Activity,Pyruvate kinase PKM [26],inactive
same,Activity,Pyruvate kinase PKM [27],inactive
same,fold change (FC),HEY [28],2
O=C(CCCC[C@H]1SC[C@H]2NC(=O)N[C@H]21)NCCOCCOCCOCCOCC(=O)Nc1ccc([As](O)O)cc1,Activity,Pyruvate kinase PKM [29],Active
same,IC50,Pyruvate kinase PKM [1],230 nM
same,IC50,Pyruvate kinase PKM [2],1030 nM
O=C(CCCC[C@H]1SC[C@H]2NC(=O)N[C@H]21)NCCOCCOCCOCCOCC(=O)Nc1ccc(B(O)O)cc1,IC50,Pyruvate kinase PKM [1],> 10000 nM
same,IC50,Pyruvate kinase PKM [2],> 10000 nM
CCN1CCC(CN(C(=O)[C@H]2CCN(Cc3ccccc3)C2)c2ccc([As]3SCCS3)cc2)CC1,IC50,A2780,110 nM
same,IC50,SK-OV-3 [22],130 nM
same,IC50,PA-1 [25],100 nM
CN1CC[C@@H](C(=O)N(Cc2ccccc2)c2ccc([As](O)O)cc2)C1,IC50,Pyruvate kinase PKM [1],285 nM
same,IC50,Pyruvate kinase PKM [2],1790 nM
CC(C)=CC[C@@H](O)C1=CC(=O)c2c(O)ccc(O)c2C1=O [SHIKONIN],Activity,Pyruvate kinase PKM [30],Active
same,IC50,Pyruvate kinase PKM [7],326 nM
same,IC50,Pyruvate kinase PKM [1],2580 nM
same,IC50,Pyruvate kinase PKM [11],301 nM
same,IC50,A2780,390 nM
same,IC50,Pyruvate kinase PKM [2],> 10000 nM
same,IC50,Pyruvate kinase PKM [15],381 nM
same,IC50,Pyruvate kinase PKM [31],1520 nM
same,Activity,Pyruvate kinase PKM [32],Active
same,IC50,SK-OV-3 [22],3460 nM
same,IC50,PA-1 [25],920 nM
same,Activity,Pyruvate kinase PKM [26],inactive
same,Activity,Pyruvate kinase PKM [27],inactive
O=C(CCCC[C@H]1SC[C@H]2NC(=O)N[C@H]21)NCCOCCOCCOCCN1CCC(CN(C(=O)[C@@H]2CCN(Cc3ccccc3)C2)c2ccc([As](O)O)cc2)CC1,Activity,Pyruvate kinase PKM [33],inactive
same,Activity,Pyruvate kinase PKM [34],Active
COc1ccc([As](O)O)cc1NC(=O)COCCOCCOCCOCCNC(=O)CCCC[C@H]1SC[C@H]2NC(=O)N[C@H]21,IC50,Pyruvate kinase PKM [1],999 nM
same,IC50,Pyruvate kinase PKM [2],1280 nM
O=C(CCCC[C@H]1SC[C@H]2NC(=O)N[C@H]21)NCCOCCOCCOCCOCC(=O)Nc1ccc([As]2SCCS2)cc1,Activity,Pyruvate kinase PKM [29],inactive
CCN1CCC(CN(C(=O)[C@@H]2CCN(Cc3ccccc3)C2)c2ccc(B(O)O)cc2)CC1,IC50,Pyruvate kinase PKM [1],> 10000 nM
same,IC50,A2780,> 10000 nM
same,IC50,Pyruvate kinase PKM [2],> 10000 nM
same,IC50,SK-OV-3 [22],> 10000 nM
same,IC50,PA-1 [25],> 10000 nM
CN1CC[C@@H](C(=O)Nc2ccc([As](O)O)cc2)C1,IC50,Pyruvate kinase PKM [1],139 nM
same,IC50,A2780,340 nM
same,IC50,Pyruvate kinase PKM [2],586 nM
same,IC50,SK-OV-3 [22],280 nM
same,IC50,PA-1 [25],480 nM
CCN1CCC(CN(C(=O)[C@@H]2CCN(Cc3ccccc3)C2)c2ccc([As](O)O)cc2)CC1,Activity,Pyruvate kinase PKM [30],Active
same,IC50,Pyruvate kinase PKM [1],122 nM
same,IC50,A2780,> 10000 nM
same,IC50,Pyruvate kinase PKM [2],250 nM
same,Activity,Pyruvate kinase PKM [32],Active
same,IC50,SK-OV-3 [22],> 10000 nM
same,IC50,PA-1 [25],> 10000 nM
O=C([C@@H]1CCN(Cc2ccccc2)C1)N(Cc1ccccc1)c1ccc([As](O)O)cc1,IC50,Pyruvate kinase PKM [1],326 nM
same,IC50,Pyruvate kinase PKM [2],1490 nM
O=C(CCCC[C@H]1SC[C@H]2NC(=O)N[C@H]21)NCCOCCOCCOCCN1CCC(CN(C(=O)[C@@H]2CCN(Cc3ccccc3)C2)c2ccc([As]3SCCS3)cc2)CC1,Activity,Pyruvate kinase PKM [30],inactive
same,Activity,Pyruvate kinase PKM [33],inactive
same,Activity,Pyruvate kinase PKM [32],inactive
CC1=CC(C)=[N+]2C1=C(CCCC(=O)N1CCC(CN(C(=O)[C@@H]3CCN(Cc4ccccc4)C3)c3ccc([As]4SCCS4)cc3)CC1)c1c(C)cc(C)n1[B-]2(F)F,Activity,Pyruvate kinase PKM [35],Active

# From ChEMBL document CHEMBL5380786, “Selective Covalent Targeting of Pyruvate Kinase M2 Using Arsenous Warheads” (J Med Chem, 2023)
